Values quoted from earlier work, collected in US7589137B2, “Resin composition and molded product obtained therefrom” (Sony Corporation, priority 2005, dated 2009).

Settings: safety to a living body

| Structure (SMILES) | LD50 |
| --- | --- |
| O=c1cc[nH]c(=O)[nH]1 [Uracil, uracil] | several |
| Cc1cc(O)nc(O)n1 [6-methyluracil] | 64500 mg/kg |
